Like-named read-outs stand apart in the source and are kept apart here.
Columns and labels:
[1] = target: NAMPT (Homo sapiens (Human), UniProt P43490); assay: Assay 1: Biochemical Inhibition Assay (NAMPT enzymatic reaction, NMN quantified by mass spectrometry); conditions: read-out: Biochemical (IC50);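 note: recombinant His-tagged human NAMPT preincubated with compound 15 min, then reacted 30 min at rt with 1 µM NAM, 100 µM PRPP, 2.5 mM ATP, NMN product read by RapidFire MS, normalized to L-Cystathionine internal standard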
Chain of NAMPT (P43490 whole entry): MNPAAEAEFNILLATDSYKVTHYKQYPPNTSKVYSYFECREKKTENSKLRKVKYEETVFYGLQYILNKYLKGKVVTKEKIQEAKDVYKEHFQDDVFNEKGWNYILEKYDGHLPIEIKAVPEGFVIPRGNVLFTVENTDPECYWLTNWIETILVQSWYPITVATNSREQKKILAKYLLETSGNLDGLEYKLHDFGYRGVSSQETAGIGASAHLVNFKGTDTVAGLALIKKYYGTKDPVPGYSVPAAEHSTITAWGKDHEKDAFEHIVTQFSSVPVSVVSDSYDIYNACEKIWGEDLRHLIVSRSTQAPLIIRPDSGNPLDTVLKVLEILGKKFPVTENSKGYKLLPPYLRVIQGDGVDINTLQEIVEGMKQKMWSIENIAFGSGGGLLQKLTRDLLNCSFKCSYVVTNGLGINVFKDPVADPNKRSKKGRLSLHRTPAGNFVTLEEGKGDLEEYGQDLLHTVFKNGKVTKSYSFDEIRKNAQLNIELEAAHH

[2] = test system: A2780 cells; assay: Assay 2: In-Vitro Cell Proliferation Assay (A2780 cells, SRB readout, 72 hours); format: cell-based; conditions: A2780 cells, 72 hours, SRB, read-out: Cell Proliferation (IC50);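 note: viable cells counted via sulforhodamine B staining, absorbance at 570 nm, after 72 h exposure at 37 °C, DMSO 0.1% as control, media-only background subtracted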

Row | Compound | IC50 [1] [nM] | IC50 ([2]; Homo sapiens, A2780, 72 h) [nM] | IC50 [2] [nM]
1 | O=C(NCc1ccc(S(=O)(=O)N2CCCCC2)cc1)c1cc2ccncc2o1 [Example 5, Furo[2,3-c]pyridine-2-carboxylic acid 4-(piperidine-1-sulfonyl)-benzylamide] | 9.4 | 29.2 | –
2 | N#CCCNC1CCN(S(=O)(=O)c2ccc(CNC(=O)c3cnc4[nH]ncc4c3)cc2)CC1 [Example 57, 1H-Pyrazolo[3,4-b]pyridine-5-carboxylic acid 4-[4-(2-cyano-ethylamino)-piperidine-1-sulfonyl]-benzylamide] | 64.8 | 55.5 | –
3 | O=C(NCc1ccc(S(=O)(=O)N2CCCCC2)cc1)c1ccn2nccc2n1 [Example 58, Pyrazolo[1,5-a]pyrimidine-5-carboxylic acid 4-(piperidine-1-sulfonyl)-benzylamide] | 240 | 2000 | –
4 | O=C(NCc1ccc(S(=O)(=O)N2C[C@H]3CCC(F)(F)[C@H]3C2)cc1)c1cnc2[nH]ncc2c1 (racemic) [Example 176, cis-1H-Pyrazolo[3,4-b]pyridine-5-carboxylic acid 4-(4,4-difluoro-hexahydro-cyclopenta[c]pyrrole-2-sulfonyl)-benzylamide] | 37.9 | 22.7 | –
5 | CN1CCC([S+]([O-])c2ccc(CNC(=O)c3ccc4nccn4c3)cc2)CC1 (centres unmarked) [Example 371, N-[[4-[(1-methyl-4-piperidyl)sulfinyl]phenyl]methyl]imidazo[1,2-a]pyridine-6-carboxamide] | 38 | 12.4 | –
6 | O=C(NCc1ccc(S(=O)(=O)N2CCC3(CCCO3)C2)cc1)c1cc2ccncc2o1 (centres unmarked) [Example 303, N-[[4-(1-oxa-7-azaspiro[4.4]nonan-7-ylsulfonyl)phenyl]methyl]furo [2.3-c]pyridine-2-carboxamide] | 22.7 | 15.4 | –
7 | O=C(NCc1ccc(S(=O)(=O)C2CCOCC2)cc1)c1cnc2nccn2c1 [Example 199, N-[(4-tetrahydropyran-4-ylsulfonylphenyl)methyl] imidazo[1,2-a]pyrimidine-6-carboxamide] | 8.65 | 185 | –
8 | CN1CCN(C2CCN(S(=O)(=O)c3ccc(CNC(=O)c4ccc5nccn5c4)cc3)CC2)CC1 [Example 110, Imidazo[1,2-a]pyridine-6-carboxylic acid 4-[4-(4-methyl-piperazin-1-yl)-piperidine-1-sulfonyl]-benzylamide] | 3.1 | 3.3 | –
9 | O=C(NCc1ccc(S(=O)(=O)N2CCN(C3COC3)CC2)cc1)c1cnc2nccn2c1 [Example 119, Imidazo[1,2-a]pyrimidine-6-carboxylic acid 4-(4-oxetan-3-yl-piperazine-1-sulfonyl)-benzylamide] | 4.4 | 352 | –
10 | CCCN1CCC([S+]([O-])c2ccc(CNC(=O)c3cc4ccncc4o3)cc2)CC1 (centres unmarked) [Example 382, N-[[4-[(1-propyl-4-piperidyl)sulfinyl]phenyl]methyl]furo[2,3-c]pyridine-2-carboxamide] | 2000 | – | 2000
11 | C[C@@H]1CN(S(=O)(=O)c2ccc(CNC(=O)c3ccc4nccn4c3)cc2)C[C@H]1O (racemic) [Example 139, trans-Imidazo[1,2-a]pyridine-6-carboxylic acid 4-(3-hydroxy-4-methyl-pyrrolidine-1-sulfonyl)-benzylamide] | 14.5 | 10.3 | –
12 | CC(C)N1CCC([S+]([O-])c2ccc(CNC(=O)c3ccc4nccn4c3)cc2)CC1 (centres unmarked) [Example 362, N-[[4-[(1-isopropyl-4-piperidyl)sulfinyl]phenyl]methyl]imidazo[1,2-a]pyridine-6-carboxamide] | 35 | 22.1 | –
13 | O=C(NCc1ccc(S(=O)(=O)N2CCCC(O)C2)cc1)c1cc2cnccc2[nH]1 (racemic) [Example 35, 1H-Pyrrolo[3,2-c]pyridine-2-carboxylic acid 4-(3-hydroxy-piperidine-1-sulfonyl)-benzylamide] | 38.3 | 35.1 | –
14 | CC(C)(C)OC(=O)N1CCC2(CCN(S(=O)(=O)c3ccc(CNC(=O)c4ccc5nccn5c4)cc3)C2)C1 (centres unmarked) [Example 241, tert-butyl 2-[4-[(imidazo[1,2-a]pyridine-6-carbonylamino)methyl]phenyl] sulfonyl-2,7-diazaspiro[4.4]nonane-7-carboxylate] | 14.4 | 4.14 | –
15 | CN1CCOC2(C1)CN(S(=O)(=O)c1ccc(CNC(=O)c3ccc4nccn4c3)cc1)C2 [Example 272, N-[[4-[(8-methyl-5-oxa-2,8-diazaspiro[3.5]nonan-2-yl)sulfonyl]phenyl]methyl] imidazo[1,2-a]pyridine-6-carboxamide] | 33.6 | 10 | –
16 | O=C(NCc1ccc(S(=O)(=O)N2C[C@@H]3CCO[C@@H]3C2)cc1)c1cnc2[nH]ncc2c1 (racemic) [Example 178, cis-1H-Pyrazolo[3,4-b]pyridine-5-carboxylic acid 4-(hexahydro-furo[2,3-c]pyrrole-5-sulfonyl)-benzylamide] | 133 | 172 | –

Row | Compound | IC50 [1] [nM] | IC50 ([2]; Homo sapiens, A2780, 72 h) [nM] | IC50 [2] [nM]
17 | O=C(NCc1ccc([S+]([O-])C2CCN(CC(F)(F)F)CC2)cc1)c1cnc2[nH]ncc2c1 (centres unmarked) [Example 367, N-[[4-[[1-(2,2,2-trifluoroethyl)-4-piperidyl)sulfinyl]phenyl]methyl]-1H-pyrazolo[3,4-b]pyridine-5-carboxamide] | 88.1 | 15 | –
18 | O=C(NCc1ccc(S(=O)(=O)C2CCCOC2)cc1)c1ccc2nccn2c1 (racemic) [Example 169, Imidazo[1,2-a]pyridine-6-carboxylic acid 4-(tetrahydro-pyran-3-sulfonyl)-benzylamide] | 32.9 | 19.9 | –
19 | O=C(NCc1ccc(S(=O)(=O)N2CC3CCOC3C2)cc1)c1ccc2nccn2c1 (centres unmarked) [Example 72, Imidazo[1,2-a]pyridine-6-carboxylic acid 4-(hexahydro-furo[2,3-c]pyrrole-5-sulfonyl)-benzylamide] | 14.3 | 5.7 | –
20 | O=C(NCc1ccc(S(=O)(=O)C2CCN(C3COC3)CC2)cc1)c1ccc2nccn2c1 [Example 114, Imidazo[1,2-a]pyridine-6-carboxylic acid 4-(l-oxetan-3-yl-piperidine-4-sulfonyl)-benzylamide] | 19.4 | 5.6 | –
21 | CC(C)(C)OC(=O)N1CCCC2(C1)CN(S(=O)(=O)c1ccc(CNC(=O)c3ccc4nccn4c3)cc1)CCO2 (racemic) [Example 126, 4-(4-{[(Imidazo[1,2-a]pyridine-6-carbonyl)-amino]-methyl}-benzenesulfonyl)-1-oxa-4,8-diaza-spiro[5.5]undecane-8-carboxylic acid tert-butyl ester] | 17.5 | 1.25 | –
22 | O=C(NCc1ccc([S+]([O-])C2CCN(C3CCOCC3)CC2)cc1)N1Cc2ccncc2C1 (centres unmarked) [Example 365, N-[[4-[(1-tetrahydropyran-4-yl-4-piperidyl)sulfinyl]phenyl]methyl]-1,3-dihydropyrrolo[3,4-c]pyridine-2-carboxamide] | 2.02 | 20 | –
23 | C[C@@H]1CN(S(=O)(=O)c2ccc(CNC(=O)c3ccc4nccn4c3)cc2)C[C@H](C)N1CC(F)(F)F [Example 83, Imidazo[1,2-a]pyridine-6-carboxylic acid 4-[(3R,5S)-3,5-dimethyl-4-(2,2,2-trifluoro-ethyl)-piperazine-1-sulfonyl]-benzylamide] | 7.7 | 2.6 | –
24 | O=C(NCc1ccc(S(=O)(=O)N2C[C@@H]3CC(F)(F)[C@@H]3C2)cc1)c1ccc2nccn2c1 (racemic) [Example 147, cis-Imidazo[1,2-a]pyridine-6-carboxylic acid 4-(6,6-difluoro-3-aza-bicyclo[3.2.0]heptane-3-sulfonyl)-benzylamide] | 13.7 | 12.5 | –
25 | O=C(NCc1ccc(S(=O)(=O)N2CC(O)C2)cc1)c1ccc2nccn2c1 [Example 245, N-[[4-(3-hydroxyazetidin-1-yl)sulfonylphenyl]methyl] imidazo[1,2-a]pyridine-6-carboxamide] | 52.3 | 274 | –
26 | O=C(NCc1ccc(S(=O)(=O)N2CC3CCC(C2)O3)cc1)c1cc2ccncc2s1 [Example 3, Thieno[2,3-c]pyridine-2-carboxylic acid 4-(8-oxa-3-aza-bicyclo[3.2.1]octane-3-sulfonyl)-benzylamide] | 12.6 | 6.4 | –
27 | O=C(NCc1ccc(S(=O)(=O)N2CCCCC2)cc1)c1cnc2nccn2c1 [Example 6, Imidazo[1,2-a]pyrimidine-6-carboxylic acid 4-(piperidine-1-sulfonyl)-benzylamide] | 3.5 | 129 | –
28 | CN1CCC2(C1)CN(S(=O)(=O)c1ccc(CNC(=O)c3cnc4[nH]ncc4c3)cc1)C2 [Example 283, N-[[4-[(7-methyl-2,7-diazaspiro[3.4]octan-2-yl)sulfonyl]phenyl]methyl]-1H-pyrazolo[3,4-b]pyridine-5-carboxamide] | 199 | 129 | –
29 | CC(C)CN1CCC([S+]([O-])c2ccc(CNC(=O)c3cnc4[nH]ncc4c3)cc2)CC1 (centres unmarked) [Example 190, N-[[4-[(1-isobutyl-4-piperidyl)sulfinyl]phenyl]methyl]-1H-pyrazolo[3,4-b]pyridine-5-carboxamide] | 130 | 23 | –
30 | O=C(NCc1ccc(S(=O)(=O)N2C[C@@H]3CC(F)(F)C[C@@H]3C2)cc1)c1ccc2nccn2c1 [Example 70, cis-Imidazo[1,2-a]pyridine-6-carboxylic acid 4-((3aR,6aS)-5,5-difluoro-hexahydro-cyclopenta[c]pyrrole-2-sulfonyl)-benzylamide] | 6.4 | 8 | –
31 | O=C(NCc1ccc(S(=O)(=O)N2CC3CCC(F)(F)C3C2)cc1)c1cc2ccncc2o1 (centres unmarked) [Example 296, N-[[4-[(4,4-difluoro-1,3,3a,5,6,6a-hexahydrocyclopenta[c]pyrrol-2-yl)sulfonyl]phenyl]methyl]furo [2,3-c]pyridine-2-carboxamide] | 9.84 | 10.1 | –

From patent US10696692B2, “Amido-benzyl sulfone and sulfoxide derivates” (Forma TM, LLC, priority 2012, dated 2020)
